Values quoted from earlier work in patent publication US8951536B2, “N-hydroxyamidinoheterocycles as modulators of indoleamine 2,3-dioxygenase” (Incyte Corporation, priority 2005, dated 2015).

Tests used:
[1] = test system: pregnant mice (carrying syngeneic or allogeneic fetuses); conditions: pregnant mice exposed to 1MT; Munn et al. 1998
[2] = test system: CD123-positive dendritic cells; conditions: mature and immature CD123-positive dendritic cells; Munn et al. 2002
[3] = test system: HeLa cells co-cultured with peripheral blood lymphocytes (PBLs); conditions: Logan et al. 2002
tumor growth in mice = conditions: Muller et al. 2005
LLC tumors = LLC tumors in C57Bl/6 mice, versus placebo; Friberg et al.
P815 tumor = conditions: pre-immunized immune-competent mice; Uyttenhove et al.

Cn1cc(C[C@H](N)C(=O)O)c2ccccc21 [1-methyl-tryptophan]
rejection of allogeneic concepti [1]: rapid, T cell-induced rejection of all allogeneic concept
IDO suppressive activity on T-cell activity [2]: blocked
reduction in PBL proliferation upon treatment with IL2 [3]: reversed

Cn1cc(CC(N)C(=O)O)c2ccccc21 (stereo not drawn) [Example 1-MT]
tumor growth with chemotherapeutic agents (tumor growth in mice): can synergize with chemotherapeutic agents to reduce tumor growth in mice
formation of tumors (LLC tumors): markedly delayed
growth of tumors (P815 tumor): inhibited
